Patent publication US12516038B2, “Inhibitors of antigen presentation by HLA-DR” (Janssen Pharmaceutica NV, priority 2020, dated 2026)

How the values were obtained:
[1] = tested on: HLA-DR4 restricted mouse T cell hybridoma line (DR4.CII.36.8) with HLA-DRB1*04:01-expressing Boleth cells; assay: HLA-DR4-restricted peptide-specific T cell-based assay (hybridoma assay); conditions: Mus musculus, T-cell, 6 h, inhibition of IL-2 production, CII259-273 peptide presented by Boleth cells
In short: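 IC50 values derive from 4-parameter logistic fits of IL-2 AlphaLISA signal over 8-point duplicate titrations. Compound and HLA-DRB1*04:01 Boleth APCs were preincubated 1 h, 37° C., before adding CII259-273-restricted DR4.CII.36.8 hybridoma cells with peptide for 6 h at 37° C., in DMEM/1% FCS.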

HLA-DRB1*0401 = HLA-DRB1*0401 (Homo sapiens (Human), UniProt P01903+P01911, A100K/A169T/DEL228-266/F76Y/I96L/K127E/L162R/M171V/N62H/P40V/Q125Y/R42H/S133A/S149N/S66Y/V115G/V209L/W38E); assay: HLA-DR4 HTRF assay; format: binding; conditions: inhibition of loading of Alexa Fluor 647-labeled Cit-CII peptide onto HLA-DR4 (CLIP cleaved)
In short: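 HLA-DRB1*04:01 construct (α/β fused to human Fc, CLIP pre-cleaved by HRV3C overnight at 4° C) at 3 nM was preincubated 45 min with compound and 1 nM anti-Fc-Tb donor, then 40 nM Alexa647-Cit-CII1236-1249 peptide added. After 90 min at 37° C, the 665/620 nm HTRF ratio gave % inhibition; IC50 by nonlinear regression.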

[2] = tested on: human peripheral blood CD4+ helper T cells; assay: Pan-CD4+ T cell activation (off-target assay); format: cell-based; conditions: Homo sapiens, T-cell, 24 h, anti-CD3/anti-CD28 stimulation, IL-2 production by ELISA
In short: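 IL-2 secretion was measured by ELISA of culture supernatant after 24 h of TCR stimulation. Stimulation used anti-CD3 coated at 1 μg/mL and 1 μg/mL soluble anti-CD28 on human blood CD4+ helper T cells without HLA-DR-expressing APCs, with compound or vehicle present.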

Structure (SMILES) | IC50 [1] | IC50 (HLA-DRB1*0401) | IC50 [2]
Cc1c(O[C@H](c2ccccc2)c2ccc(C(=O)O)cc2)ccc2c1OCCC2=O (single isomer, unassigned) [Example 70a, (*R)-4-(((8-methyl-4-oxochroman-7-yl)oxy)(phenyl)methyl)benzoic acid] | 7.1 µM | 1.3 µM | 4.7 µM
CC[C@@H]1CC(=O)c2ccc(OCc3ccnc(C)c3)cc2O1 (single isomer, unassigned) [Example 118a, (*R)-2-ethyl-7-((2-methylpyridin-4-yl)methoxy)chroman-4-one] | 7.5 µM | 0.96 µM | > 15 µM
NC(=O)c1ccc([C@@H](Oc2ccc3c(c2-c2ccccc2)OCCC3=O)c2ccncc2)cc1 (single isomer, unassigned) [Example 53a, (*R)-4-(((4-oxo-8-phenylchroman-7-yl)oxy)(pyridin-4-yl)methyl)benzamide] | 0.74 µM | 0.8 µM | 2.1 µM
